Tests used:
H 322M = test: NCI in vitro 60 human tumor cell line assay; assay type: cell-based; conditions: NCI-H322M, 48 h, read-out: Total Growth Inhibition (TGI)
Description: (§1) Each test compound was screened against a battery of 60 human cell lines obtained from eight organs. In a typical procedure, the cell suspensions that were diluted according to the particular cell type and the expected target cell density (5000-40,000 cells per well based on cell growth characteristics) were added into 96-well microtiter plates. Inoculates were allowed a preincubation period of 24h at 37°C. for stabilization. Dilutions at twice the intended test concentrations were added at time zero in 100-µl aliquots to microtiter plate wells. Usually test compounds were evaluated at five 10-fold dilutions. The highest well concentration used in the test is 10^-4M. The cells are then incubated in the presence of drug (the test compound) for further 48h in 5% CO2 atmosphere and 100% humidity. At the end of this time, the adherent cells are fixed to the plate by means of trichloroacetic acid, and after a number of washes, the cell layer is treated with the protein stain Sulforhodamine B. The optical density which is proportional to protein mass, is then read by automated spectrophotometric plate readers at a wavelength of 515 nm. Readings are transferred to a microcomputer and final reports are generated using especially developed software.

SF 268 = test: NCI in vitro 60 human tumor cell line assay; assay type: cell-based; conditions: SF-268, 48 h, read-out: Total Growth Inhibition (TGI)
Description: (§2) Each test compound was screened against a battery of 60 human cell lines obtained from eight organs. In a typical procedure, the cell suspensions that were diluted according to the particular cell type and the expected target cell density (5000-40,000 cells per well based on cell growth characteristics) were added into 96-well microtiter plates. Inoculates were allowed a preincubation period of 24h at 37°C. for stabilization. Dilutions at twice the intended test concentrations were added at time zero in 100-µl aliquots to microtiter plate wells. Usually test compounds were evaluated at five 10-fold dilutions. The highest well concentration used in the test is 10^-4M. The cells are then incubated in the presence of drug (the test compound) for further 48h in 5% CO2 atmosphere and 100% humidity. At the end of this time, the adherent cells are fixed to the plate by means of trichloroacetic acid, and after a number of washes, the cell layer is treated with the protein stain Sulforhodamine B. The optical density which is proportional to protein mass, is then read by automated spectrophotometric plate readers at a wavelength of 515 nm.

UO 31 = test: NCI in vitro 60 human tumor cell line assay; assay type: cell-based; conditions: UO-31, 48 h, read-out: Total Growth Inhibition (TGI)
Description: as §1

[1] = Lactone stability in whole blood (HPLC); assay type: in vitro ADME; conditions: human, whole blood, 1 μM, 37°C, lactone peak area relative to zero time (100%); read-out: Lactone Stability in Whole Blood (after 3 hours)
Description: 2. Lactone Stability in whole blood:
2 ml of blood from a healthy volunteer was collected in a tube containing 40 µl of heparin (572 IU) to prevent coagulation, 4 mM and 40 µM working solutions of the drug in DMSO were prepared and added to aliquots of whole blood to give final concentration of 100 µM and 1 µM respectively. The drug is incubated in whole blood at 37°C and 20 µl samples are collected into 180 µl of chilled methanol (-30°C) at different time intervals (0, 1, 2 & 3 hrs). Vortex and then centrifuge at 11000 rpm for 3 min in a microcentrifuge at room temperature. Dilute 100 µl of the supernatant with water to 300-500 µl depending upon the signal response (UV for 100 µM concentration and fluoroscence for 1 µM concentration) of the compound. 200 µl of the diluted sample is injected on to the HPLC column previously equilibrated with the mobile phase. The area under peak corrsponding to lactone forms is measured. Zero time peak area is taken as 100%, and the proportion of lactone peak area at different time points is calculated to determine the equilibrium lactone stability as obtained by consistent lactone proportion over two successive time points. (Biochemistry, 1994; 33:10325-10336 and J. Pharm. Sci., 1995; 84:518-519).

EKVX = test: NCI in vitro 60 human tumor cell line assay; assay type: cell-based; conditions: 48 h, read-out: Total Growth Inhibition (TGI)
Description: as §1

U 251 = test: NCI in vitro 60 human tumor cell line assay; assay type: cell-based; conditions: U-251, 48 h, read-out: Total Growth Inhibition (TGI)
Description: as §1

OVCAR 8 = test: NCI in vitro 60 human tumor cell line assay; assay type: cell-based; conditions: OVCAR-8, 48 h, read-out: Total Growth Inhibition (TGI)
Description: as §2

SK OV3 = test: NCI in vitro 60 human tumor cell line assay; assay type: cell-based; conditions: SK-OV-3, 48 h, read-out: Total Growth Inhibition (TGI)
Description: as §2

HOP 92 = test: NCI in vitro 60 human tumor cell line assay; assay type: cell-based; conditions: HOP-92, 48 h, read-out: Total Growth Inhibition (TGI)
H 23 = test: NCI in vitro 60 human tumor cell line assay; assay type: cell-based; conditions: NCI-H23, 48 h, read-out: Total Growth Inhibition (TGI)
Description: as §1

MDA-MB-435 = test: NCI in vitro 60 human tumor cell line assay; assay type: cell-based; conditions: MDA-MB-435, 48 h, read-out: Total Growth Inhibition (TGI)
H 522 = test: NCI in vitro 60 human tumor cell line assay; assay type: cell-based; conditions: NCI-H522, 48 h, read-out: Total Growth Inhibition (TGI)
Description: as §1

KM 12 = test: NCI in vitro 60 human tumor cell line assay; assay type: cell-based; conditions: KM12, 48 h, read-out: Total Growth Inhibition (TGI)
Description: as §1

BT 549 = test: NCI in vitro 60 human tumor cell line assay; assay type: cell-based; conditions: BT-549, 48 h, read-out: Total Growth Inhibition (TGI)
Description: as §1

H 226 = test: NCI in vitro 60 human tumor cell line assay; assay type: cell-based; conditions: NCI-H226, 48 h, read-out: Total Growth Inhibition (TGI)
Description: as §1

MDA-N = test: NCI in vitro 60 human tumor cell line assay; assay type: cell-based; conditions: BREAST, 48h, read-out: Total Growth Inhibition (TGI)
Description: as §2

T 47D = test: NCI in vitro 60 human tumor cell line assay; assay type: cell-based; conditions: T47D, 48 h, read-out: Total Growth Inhibition (TGI)
Description: as §1

[2] = system: NCI's 60 human tumor cell line assay; test: cells; assay type: cell-based; conditions: 60 cell, 48 h, read-out: IC50 (mean GI50 against NCI's 60 human tumor cell line assay)
Description: as §1

HOP 62 = test: NCI in vitro 60 human tumor cell line assay; assay type: cell-based; conditions: HOP-62, 48 h, read-out: Total Growth Inhibition (TGI)
COLO 205 = test: NCI in vitro 60 human tumor cell line assay; assay type: cell-based; conditions: COLO 205, 48 h, read-out: Total Growth Inhibition (TGI)
Description: as §1

HCT 116 = test: NCI in vitro 60 human tumor cell line assay; assay type: cell-based; conditions: HCT-116, 48 h, read-out: Total Growth Inhibition (TGI)
MCF 7/ ADR = test: NCI in vitro 60 human tumor cell line assay; assay type: cell-based; conditions: Homo sapiens, NCI/ADR-RES, 48 h, read-out: Total Growth Inhibition (TGI)
Description: as §1

Work on `CC[C@@]1(O)C(=O)OCc2c1cc1n(c2=O)C(OCCO)c2cc3ccccc3nc2-1` (stereo partly shown) [Example 26, 5-(2'-Hydroxyethoxy)camptothecin] yielded an IC (TGI) (H 322M) of 31.6 µM, an IC (TGI) (SF 268) of 30.9 µM and an IC (TGI) (UO 31) of 3.89 µM. For the same compound, the remaining at 3 h, 1 µM [1] was 5.3%, the IC (TGI) (EKVX) was 63 µM and the IC (TGI) (U 251) was 7.58 µM. For the same compound, the IC (TGI) (OVCAR 8) was 13.4 µM and the IC (TGI) (SK OV3) was 3.8 µM.
`CC[C@@]1(O)C(=O)OCc2c1cc1n(c2=O)C(OCC(F)(F)F)c2cc3cc(O)ccc3nc2-1` (stereo partly shown) [Example 27, 10-Hydroxy-5-trifluoroethoxycamptothecin] gave an IC (TGI) (HOP 92) of 4.88 µM, an IC (TGI) (H 23) of 0.91 µM and an IC (TGI) (MDA-MB-435) of 9.62 µM. It also gave an IC (TGI) (H 522) of 7.66 µM, an IC (TGI) (KM 12) of 10.6 µM and an IC (TGI) (BT 549) of 11.4 µM. The IC (TGI) (H 226) was 4.75 µM, the IC (TGI) (MDA-N) was 11 µM and the IC (TGI) (T 47D) was 0.81 µM. It also gave a mean GI50 [2] of 0.38 µM, an IC (TGI) (HOP 62) of 4.95 µM and an IC (TGI) (COLO 205) of 19.5 µM. The IC (TGI) (HCT 116) was 4.06 µM and the IC (TGI) (MCF 7/ ADR) was 1.25 µM.
